From patent US20240024251A1, “POLYSACCHARIDE ENCAPSULATED OXYGEN NANOBUBBLES” (THE BOARD OF TRUSTEES OF THE UNIVERSITY OF ILLINOIS, priority 2020, published 2024)

Test system: R-28 and ARPE-19 cell line
Details: rat (R-28), human (ARPE-19), 48 h
Procedure: The biosafety of DONBs and excipients used in the formulation was evaluated on retinal precursor cells R-28 and retinal pigment epithelial cells (ARPE-19). The suspensions of the following cell line (100 μL, −60,000 cells/mL) were seeded into each well of a 96-well plate and cultured overnight. The cells were cultured for 24 h in the dark.
Excipient toxicity studies on ARPE-19 and R28 cell line. Cell viability was conducted with ARPE-19 and R28 cell lines, in response to treatment with nanobubble excipients, using the [3-(4, 5-dimethylthiazol-2-yl)-2, 5-diphenyl tetrazolium bromide](MTT) assay. The MTT reagent (Cat no. M6494, Thermo Fisher Scientific) was prepared by dissolving 5 mg of MTT per 1 ml of phosphate-buffered saline (Cat no. 21-040-CV, Corning), filter sterilized using a 0.22 μm filter, and stored in dark at 4° C. Yellow MTT is reduced to purple formazan in the mitochondria of living cells. Cells were grown to 80-90% confluence in a T-25 flask, dissociated using trypsin, and seeded into a 96-well plate at a density of 10000 cells per well. […] The absorbance was measured at 590 nm with a reference filter of 620 nm.

With `OC[C@H]1O[C@H](O[C@H]2O[C@H](CO)[C@@H](O)[C@H](O)[C@H]2O)[C@H](O)[C@@H](O)[C@@H]1O` [Trehalose, D-(+)-Trehalose dihydrate] the “excipient concentration producing some toxic effect on cell viability” value was 0.6 to 0.7 mg.
